As a reminder, the MIC is the lowest concentration found to suppress growth. A lower MIC goes with a more susceptible organism. What is called IC50 is the concentration that inhibits the measured activity by half. Low readings indicate inhibition by little substance, high ones a need for much substance.

SMILES strings stand for the structures. Converted amounts (≈) assume the structure as drawn. Bridge positions count the residues as written; N and C are the ends. Square brackets hold non-standard residues; d marks the D form. Peptide text beside a SMILES is read from it. * marks the point of attachment. Ileψ(thiazoline)Cys = CC[C@H](C)[C@H](N)C1=N[C@H](C(=O)*)CS1; dOrn = NCCC[C@@H](N)C(=O)O Where only a bound is given, the exact number is not on record here.

In data set [1] the test system is Staphylococcus aureus. As to the kind of experiment: Antibacterial activity against Staphylococcus aureus CCM 4516/08 after 24 hrs by broth microdilution method. To be noted: CCM 4516/08, 24 h. It is filed as functional. Background: Broth dilution looks for growth in wells or tubes with falling amounts of substance.
Data set [2] relates to Staphylococcus aureus. Put plainly: Antibacterial activity against Staphylococcus aureus CCM 4516/08 after 48 hrs by broth microdilution method. It is filed as functional. To be noted: CCM 4516/08, 48 h.
The test system of data set [3] is Staphylococcus aureus. Put plainly: Antibacterial activity against methicillin-resistant Staphylococcus aureus H 5996/08 after 24 hrs by broth microdilution method. The format is functional. To be noted: H 5996/08, 24 h.
The test system of data set [4] is Staphylococcus aureus. Put plainly: Antibacterial activity against methicillin-resistant Staphylococcus aureus H 5996/08 after 48 hrs by broth microdilution method. It is filed as functional. To be noted: H 5996/08, 48 h.
Data set [5] has as its system Staphylococcus epidermidis. As to the kind of experiment: Antibacterial activity against Staphylococcus epidermidis H 6966/08 after 24 hrs by broth microdilution method. The format is functional. The conditions noted are these: H 6966/08, 24 h.
Data set [6] concerns Staphylococcus epidermidis. Put plainly: Antibacterial activity against Staphylococcus epidermidis H 6966/08 after 48 hrs by broth microdilution method. The conditions noted are these: H 6966/08, 48 h. The format is functional.
In data set [7] the test system is Enterococcus sp. As to the kind of experiment: Antibacterial activity against Enterococcus sp. J 14365/08 after 24 hrs by broth microdilution method. It is filed as functional. To be noted: J 14365/08, 24 h.
The test system of data set [8] is Enterococcus sp. Put plainly: Antibacterial activity against Enterococcus sp. J 14365/08 after 48 hrs by broth microdilution method. The format is functional. The conditions noted are these: J 14365/08, 48 h.
Data set [9] relates to HepG2. Put plainly: Cytotoxicity against human HepG2 cells after 72 hrs by MTT assay. It is filed as cell-based. To be noted: HepG2, 72 h.
Data set [10] can be described thus: Selectivity index, ratio of IC50 for human HepG2 cells to MIC for Staphylococci.
Data set [11] relates to Mycobacterium tuberculosis. Put plainly: Antimycobacterial activity against Mycobacterium tuberculosis H37Rv 331/88 after 14 days by microdilution method. It is filed as functional. To be noted: H37Rv 331/88, 336 h.
For data set [12], the system named is Mycobacterium tuberculosis. As to the kind of experiment: Antimycobacterial activity against Mycobacterium tuberculosis H37Rv 331/88 after 21 days by microdilution method. It is filed as functional. The conditions noted are these: H37Rv 331/88, 504 h.
In data set [13] the test system is Mycobacterium avium. Put plainly: Antimycobacterial activity against INH,RIF,OFX,EMB-resistant Mycobacterium avium 330/88 after 14 days by microdilution method. It is filed as functional. To be noted: 330/88, 336 h.
Data set [14] has as its system Mycobacterium avium. Put plainly: Antimycobacterial activity against INH,RIF,OFX,EMB-resistant Mycobacterium avium 330/88 after 21 days by microdilution method. It is filed as functional. To be noted: 330/88, 504 h.
In data set [15] the test system is Mycobacterium kansasii. As to the kind of experiment: Antimycobacterial activity against Mycobacterium kansasii 235/80 after 7 days by microdilution method. It is filed as functional. To be noted: 235/80, 168 h.
Data set [16] has as its system Mycobacterium kansasii. As to the kind of experiment: Antimycobacterial activity against Mycobacterium kansasii 235/80 after 14 days by microdilution method. The format is functional. The conditions noted are these: 235/80, 336 h.
Data set [17] relates to Mycobacterium kansasii. Put plainly: Antimycobacterial activity against Mycobacterium kansasii 235/80 after 21 days by microdilution method. To be noted: 235/80, 504 h. It is filed as functional.
Data set [18] concerns Mycobacterium kansasii. Put plainly: Antimycobacterial activity against Mycobacterium kansasii 6509/96 after 7 days by microdilution method. The format is functional. To be noted: 6509/96, 168 h.
Data set [19] deals with Mycobacterium kansasii. As to the kind of experiment: Antimycobacterial activity against Mycobacterium kansasii 6509/96 after 14 days by microdilution method. It is filed as functional. The conditions noted are these: 6509/96, 336 h.
In data set [20] the test system is Mycobacterium kansasii. As to the kind of experiment: Antimycobacterial activity against Mycobacterium kansasii 6509/96 after 21 days by microdilution method. The format is functional. To be noted: 6509/96, 504 h.
Data set [21] is described as follows: Selectivity index, ratio of IC50 for human HepG2 cells to MIC for Mycobacterium tuberculosis. To be noted: read-out: Selectivity Index. It is filed as toxicity, cell-based.
A further data set is described as follows: in vitro. The conditions noted are these: human, HepG2 cells.
The test system of data set [22] is Trichosporon asahii. As to the kind of experiment: Antifungal activity against Trichosporon asahii 1188 after 24 hrs by broth microdilution method. It is filed as functional. The conditions noted are these: Trichosporon asahii, 1188, 24 h.
The test system of data set [23] is Trichosporon asahii. As to the kind of experiment: Antifungal activity against Trichosporon asahii 1188 after 48 hrs by broth microdilution method. To be noted: Trichosporon asahii, 1188, 48 h. It is filed as functional.
Data set [24] has as its system HepG2. Put plainly: Cytostatic activity against human HepG2 cells after 72 hrs by MTT assay. The format is functional, cell-based. To be noted: HepG2, 72 h.
Data set [25] can be described thus: Selectivity index, ratio of IC50 for human HepG2 cells to MIC for atypical mycobacteria.

Description for in vitro: Selectivity index, ratio of IC50 for human HepG2 cells to MIC for Mycobacterium kansasii 6509/96

Take `CC[C@H](C)[C@H](N)C1=N[C@H](C(=O)N[C@@H](CC(C)C)C(=O)N[C@H](CCC(=O)O)C(=O)N[C@H](C(=O)N[C@H]2CCCCNC(=O)[C@H](CC(N)=O)NC(=O)[C@@H](CC(=O)O)NC(=O)[C@H](Cc3cnc[nH]3)NC(=O)[C@@H](Cc3ccccc3)NC(=O)[C@H]([C@@H](C)CC)NC(=O)[C@@H](CCCN)NC2=O)[C@@H](C)CC)CS1` [BACITRACIN] ({Ileψ(thiazoline)Cys}-L[dE]IK[dOrn]I[dF]H[dD]N; lactam 4-C): the MIC was 7.81 µM (≈ 11.1 µg/mL) against Staphylococcus aureus [1]; 15.6 µM (≈ 22.2 µg/mL) with Staphylococcus aureus [2]; 15.6 µM (≈ 22.2 µg/mL) in the data set with Staphylococcus aureus [3]; 15.6 µM (≈ 22.2 µg/mL) against Staphylococcus aureus [4]; 15.6 µM (≈ 22.2 µg/mL) in data set [5]; 31.2 µM (≈ 44.5 µg/mL) in data set [6]. The MIC in the data set on Enterococcus sp. [7] turned out to be 15.6 µM (≈ 22.2 µg/mL); against Enterococcus sp. [8] it was 62.5 µM (≈ 88.9 µg/mL). In addition, the IC50 in the data set with HepG2 [9] was 255 µM. In [10], the “Selectivity Index” value is reported as 8.1.

`NNC(=O)c1ccncc1` [ISONIAZID]: the MIC in [11] was 0.5 µM (≈ 0.0686 µg/mL); in [12], 0.5 µM (≈ 0.0686 µg/mL); with Mycobacterium avium [13], greater than 250 µM; against Mycobacterium avium [14], greater than 250 µM; against Mycobacterium kansasii [15] it was greater than 250 µM; in the data set with Mycobacterium kansasii [16], greater than 250 µM. Moreover, the minimum inhibitory concentration (MIC) is greater than 250 µM against Mycobacterium kansasii [17], 2 µM (≈ 0.274 µg/mL) in the data set with Mycobacterium kansasii [18], 4 µM (≈ 0.549 µg/mL) against Mycobacterium kansasii [19] and 4 µM (≈ 0.549 µg/mL) with Mycobacterium kansasii [20]. Besides, the 50% inhibitory concentration (IC50) with HepG2 [9] is greater than 250 µM. Also, the results for the selectivity ratio (in data set [21]; in “in vitro”) were greater than 250 and no less than 31.3, respectively.

On to `Cc1ccc(C(=O)Oc2ccc(Cl)cc2C(=O)Nc2ccc(C(F)(F)F)cc2)cc1`, for which the minimum inhibitory concentration (MIC) is 0.5 µM (≈ 0.217 µg/mL) in data set [11]; 0.5 µM (≈ 0.217 µg/mL) in data set [12]; 4 µM (≈ 1.74 µg/mL) in the data set with Mycobacterium avium [13]; 4 µM (≈ 1.74 µg/mL) in the data set on Mycobacterium avium [14]; 1 µM (≈ 0.434 µg/mL) in the data set on Mycobacterium kansasii [15]; 1 µM (≈ 0.434 µg/mL) in the data set with Mycobacterium kansasii [16]. The MIC against Mycobacterium kansasii [17] was 2 µM (≈ 0.868 µg/mL); in the data set on Mycobacterium kansasii [18], 1 µM (≈ 0.434 µg/mL); with Mycobacterium kansasii [19] it was 2 µM (≈ 0.868 µg/mL); against Mycobacterium kansasii [20], 2 µM (≈ 0.868 µg/mL); with Staphylococcus aureus [1], greater than 250 µM; against Staphylococcus aureus [2] it was greater than 250 µM. For the same compound, the minimal inhibitory concentration (MIC) (against Staphylococcus aureus [3]; in the data set on Staphylococcus aureus [4]; in data set [5]; in [6]; against Enterococcus sp. [7]; against Enterococcus sp. [8]) was greater than 250 µM in each case. In addition, the minimal inhibitory concentration (MIC) in the data set on Trichosporon asahii [22] and against Trichosporon asahii [23] was greater than 250 µM throughout. For the same compound, the IC50 was 6.9 µM with HepG2 [24] and greater than 50 µM with HepG2 [9]. In addition, the selectivity ratio in data set [21] is greater than 100. Besides, in [25], the “Selectivity Index” value is listed as greater than 12.5.
